Experimental data: patent publication US8314234B2, “Bicyclic pyrimidine kinase inhibitors” (Janssen Pharmaceutica N.V., priority 2006, dated 2012)
Each block holds one molecule with its values, some of them ahead of it.

Columns and labels:
[1] = target: T1, EGFR (Homo sapiens, UniProt P00533); test: EGFR Kinase Assay; assay type: biochemical; details: test concentration of 2 μM
T1 construct: intracellular portion of EGFR started at nucleotide 2189 (corresponding to amino acid 667) and ended at the termination codon; made in house; host or cells: Sf9 insect cells (baculovirus)
T1 sequence (P00533 669-1210 limits assumed): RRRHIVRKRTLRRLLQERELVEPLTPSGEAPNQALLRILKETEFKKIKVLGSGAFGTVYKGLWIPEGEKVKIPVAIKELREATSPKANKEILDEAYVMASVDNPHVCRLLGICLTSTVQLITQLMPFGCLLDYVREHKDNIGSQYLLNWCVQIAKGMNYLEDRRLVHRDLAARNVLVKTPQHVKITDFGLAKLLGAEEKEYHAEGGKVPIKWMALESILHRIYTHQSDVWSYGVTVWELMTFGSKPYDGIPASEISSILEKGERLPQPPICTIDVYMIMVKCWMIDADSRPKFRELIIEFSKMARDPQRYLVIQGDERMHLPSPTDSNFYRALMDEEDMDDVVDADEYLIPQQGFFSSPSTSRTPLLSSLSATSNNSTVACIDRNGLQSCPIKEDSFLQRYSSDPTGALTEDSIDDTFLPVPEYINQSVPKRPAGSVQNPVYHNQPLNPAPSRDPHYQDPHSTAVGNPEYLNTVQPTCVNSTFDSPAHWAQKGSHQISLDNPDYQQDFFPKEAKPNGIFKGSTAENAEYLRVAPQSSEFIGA
Description: The EGFR kinase used was a fusion of Glutathione-S-Transferase (GST) and a PCR amplified intracellular portion of EGFR (NM_005228). The intracellular portion of EGFR started at nucleotide 2189 (corresponding to amino acid 667) and ended at the termination codon. The portion was PCR amplified with primers that added the lambda attB sequences to each end, recombined into an entry vector, then into a GST destination vector (as described in Gateway Technologies Manual by Invitrogen Corporation, Carlsbad, Calif.).
The destination vector was recombined in the DH10BAC strain of bacteria to produce a bacmid. The bacmid was transfected into Sf9 cells and the supernatant containing the baculovirus was collected. The GSTEGFR protein was purified using large cultures of Sf9 cells infected with stock virus. After an appropriate period of time, the cells were collected and lysed. The GSTEGFR was then purified from the lysate on Glutathione-Sepharose columns (as described by Amersham Biosciences, Buckinghamshire, United Kingdom).
The EGFR substrate was prepared by biotinylating polyGluTyr (128 mg) (Sigma, St. Louis, Mo.) in a 1×PBS buffer incubated together with a 12-fold molar excess of Sulfo-NHS-LC-Biotin on ice for at least 2 hrs. The free biotin was separated from the biotinylated polyGluTyr on a gel filtration column.
A mixture of a 10× kinase buffer (500 mM Tris at pH 8.0, 100 mM Magnesium Chloride and 1 mM Sodium Vanadate), DTT (1 mM final from 500 mM stock), ATP (5 μM final from 10 mM stock), biotinylated polyGluTyr (10 μg/μL stock), γ-^33P ATP (10 μCi/μL stock) and water was added to each well (90 μL/well) of a Streptavidin Flashplate (Perkin Elmer, Wellesley, Mass.).
Test compound in 100% DMSO (2 μL) was added to the appropriate wells. Diluted GSTEGFR (1:300 dilution in 50 mM Tris at pH 8.0 and 0.1% bovine serum albumin) (10 μL) was added to the wells to initiate the reactions.
The plates were incubated at 30° C. for 1 hr with shaking. The reacted contents were removed and the plates were sequentially washed three times with a 1×PBS stop buffer (300 μL without Magnesium and Calcium) and 100 mM EDTA. After the final wash, the same stop buffer (200 μL) was added to the wells. The plates were then sealed and read on the TopCount scintillation counter.
Test compounds were assayed in triplicate at 16 concentrations at half-log dilutions starting at 200 uM. A maximum and minimum signal for the assay was determined on each plate. The percent inhibition of a test compound was calculated according to the formula
For a series of test concentrations, the IC50 was derived by graphing percent inhibition against the log of the concentrations tested for a given compound. The percent inhibition results are shown in Table 1 at a test concentration of 2 μM. For those compounds with an IC50, the IC50 value is shown in parentheses.

[2] = target: T2, CDK1 (Homo sapiens, UniProt P06493); test: CDK-1 screening assay; assay type: biochemical
T2 construct: purchased New England Biolabs, Beverly, Mass; 6020; host or cells: insect cells
T2 sequence (P06493 whole entry): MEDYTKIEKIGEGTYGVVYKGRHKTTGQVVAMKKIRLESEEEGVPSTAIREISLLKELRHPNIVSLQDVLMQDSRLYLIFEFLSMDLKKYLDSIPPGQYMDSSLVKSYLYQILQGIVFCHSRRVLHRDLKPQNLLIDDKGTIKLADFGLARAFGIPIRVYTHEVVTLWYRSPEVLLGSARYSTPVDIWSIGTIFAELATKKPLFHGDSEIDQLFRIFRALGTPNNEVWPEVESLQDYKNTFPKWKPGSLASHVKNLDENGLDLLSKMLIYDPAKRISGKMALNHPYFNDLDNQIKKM
T2 sequence (P14635 whole entry partner): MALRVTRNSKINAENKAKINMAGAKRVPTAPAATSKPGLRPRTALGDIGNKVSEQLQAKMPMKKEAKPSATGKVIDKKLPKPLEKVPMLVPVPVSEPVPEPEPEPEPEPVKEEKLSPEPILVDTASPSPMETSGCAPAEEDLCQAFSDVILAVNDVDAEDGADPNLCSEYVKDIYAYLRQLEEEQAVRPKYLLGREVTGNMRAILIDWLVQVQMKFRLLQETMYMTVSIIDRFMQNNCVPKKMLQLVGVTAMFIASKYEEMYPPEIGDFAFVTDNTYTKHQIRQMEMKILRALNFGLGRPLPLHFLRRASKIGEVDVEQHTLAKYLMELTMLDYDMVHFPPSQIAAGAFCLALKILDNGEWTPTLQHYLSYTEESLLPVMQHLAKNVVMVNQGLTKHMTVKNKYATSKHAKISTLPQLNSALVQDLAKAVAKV
Description: (§1) 70 μL of the kinase reaction mixture was dispensed into the well of a streptavidin coated FlashPlate™ (Cat. #SMP103, NEN, Boston, Mass.).
(§2) Test compound stock in 100% DMSO (1 μL) was added to the wells resulting in a final concentration of 1% DMSO in the reaction with a 100 μL final reaction volume. Each enzyme was diluted in 50 mM Tris-HCl pH=8.0, 0.1% BSA and 30 μL was added to each well to initiate the reaction. The reaction was incubated for one hour at 30° C. At the end of the 1 hr incubation, the reaction was terminated by aspirating the mixture from the plate and washing the wells twice with PBS containing 100 mM EDTA. The biotinylated peptide substrate became immobilized on the Flashplate and the incorporation of ^33P-γ-ATP was measured by reading the plate on a scintillation counter. Inhibition of the enzymatic activity was measured by observing a reduced amount of ^33P-γ-ATP incorporated into the immobilized peptide.
(§3) A maximum and minimum signal for the assay was determined on each plate. The percent inhibition of a test compound was calculated according to the formula: […]
(§4) The term “ND” means “not determined.”

[3] = target: T3, CDK2 (Homo sapiens, UniProt P24941); test: CDK-2 screening assay; assay type: biochemical
T3 construct: purchased Upstate Biotech, Lake Placid, N.Y
Description: as §1, §2
The CDK2 enzyme in complex with cyclin A is commercially available (Upstate Biotech, Lake Placid, N.Y.).
as §3, §4

[4] = target: VEGFR2 (Rattus norvegicus, UniProt O08775); test: VEGFR2 screening assay; assay type: biochemical
Chain of VEGFR2 (O08775 786-1343): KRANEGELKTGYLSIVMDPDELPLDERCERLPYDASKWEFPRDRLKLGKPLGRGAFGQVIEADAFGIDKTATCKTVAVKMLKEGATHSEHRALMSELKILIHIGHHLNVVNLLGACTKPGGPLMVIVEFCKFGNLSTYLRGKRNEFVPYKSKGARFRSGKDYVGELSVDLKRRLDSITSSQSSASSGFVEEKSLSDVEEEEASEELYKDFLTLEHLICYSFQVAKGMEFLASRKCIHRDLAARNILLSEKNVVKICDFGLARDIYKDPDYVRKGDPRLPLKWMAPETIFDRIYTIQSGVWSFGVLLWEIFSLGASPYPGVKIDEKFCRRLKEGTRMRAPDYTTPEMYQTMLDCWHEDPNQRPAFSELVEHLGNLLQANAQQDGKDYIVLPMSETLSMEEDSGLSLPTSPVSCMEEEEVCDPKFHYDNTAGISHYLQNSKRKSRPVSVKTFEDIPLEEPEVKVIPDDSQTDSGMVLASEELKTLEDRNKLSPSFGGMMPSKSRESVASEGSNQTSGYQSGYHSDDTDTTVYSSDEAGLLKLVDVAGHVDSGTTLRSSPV
Description: A kinase reaction mixture was prepared containing 50 mM Tris-HCl pH=8, 10 mM MgCl2, 0.1 mM […], 1 mM DTT, 10 μM ATP, 0.025 μM biotinylated histone-H1 peptide substrate and 0.2 μCuries per well ^33P-γ-ATP (2000-3000 Ci/mmol). 70 μL of the kinase reaction mixture was dispensed into the well of a streptavidin coated FlashPlate™ (Cat. #SMP103, NEN, Boston, Mass.).
as §2
The VEGF-R2 enzyme is a fusion protein containing a polyhistidine tag at the N terminus followed by amino acids 786 to 1343 of the rat VEGF-R2 kinase domain (Accession number U93306). The assay used 150 ng of the N-terminal biotinylated peptide biotin-[…]-amide SEQ ID NO: 2) (VEGF-R2) per well.
as §3
For a series of test concentrations, the IC50 was derived by graphing percent inhibition against the log of the concentrations tested for a given compound with results shown in Table 2. For those compounds without an IC50, the inhibition values in percent are shown at a test concentration of 2 μM. The term “ND” means “not determined.”

[5] = test system: HeLa cervical adenocarcinoma; test: Cell Proliferation Inhibition Assay (14C-thymidine incorporation), HeLa; assay type: cell-based; details: Homo sapiens
Description: (§5) The ability of a test compound to inhibit unregulated cell proliferation may be determined by measuring incorporation of ^14C-labelled thymidine into newly synthesized DNA within cell lines derived from carcinomas originating from several tissues. Accordingly, the anti-proliferative effect of a compound on cells with a variety of phenotypes may be determined.
(§6) Carcinoma cell lines include those such as HeLa cervical adenocarcinoma (American Type Culture Collection (ATCC), Virginia, Cat. #CCL-2), A375 malignant melanoma (ATCC CRL-1619), SK-OV-3 ovarian adenocarcinoma (ATCC HTB-77), HCT-116 colon carcinoma (CCL-247), PC-3 prostate adenocarcinoma (ATCC CRL-1435), and MDA-MB-231 (Xenogen Corp.)
(§7) The carcinoma cells are trypsinized and counted. The cells (3000-8000 count) are added to each well of a 96-well CytoStar tissue culture treated scintillating microplate (Amersham #RPNQ0160) in complete medium (100 μL) and the plate is then incubated in complete medium for 24 hrs at 37° C. in an inert atmosphere containing 5% CO2. Test compound (1 μL) in 100% DMSO is added to the plate test-wells with DMSO only added to control-wells. The plate is incubated in complete medium for a second 24 hr period at 37° C. in an atmosphere containing 5% CO2.
(§8) An aliquot of a solution of Methyl ^14C-thymidine (56 mC/mmol) (NEN #NEC568 or Amersham #CFA532) and complete medium (20 uL to provide 0.2 μCi/well) is then added to each well and the plate is incubated for a third 24 hr period at 37° C. in an atmosphere containing 5% CO2. The plate contents are then discarded, the plate is washed twice with PBS (200 μL) and then PBS (200 μL) is added to each well. The plate is sealed and the degree of methyl ^14C-thymidine incorporation is quantified on a Packard Top Count.

[6] = test system: HCT-116 colon carcinoma; test: Cell Proliferation Inhibition Assay (14C-thymidine incorporation), HCT-116; assay type: cell-based; details: Homo sapiens
Description: as §5, §6, §7, §8

[7] = test system: A375 malignant melanoma; test: Cell Proliferation Inhibition Assay (14C-thymidine incorporation), A375; assay type: cell-based; details: Homo sapiens, A-375
Description: as §5, §6, §7, §8

Compound: c1cc2cc(Nc3nc(Nc4ccc5[nH]ccc5c4)c4cn[nH]c4n3)ccc2[nH]1 [Cpd 13, N^4,N^6-bis-(1H-indol-5-yl)-1H-pyrazolo[3,4-d]pyrimidine-4,6-diamine]
inhibition at 2 µM [1]: -4%
IC50 [2]: 2.59 µM
IC50 [3]: 0.494 µM
IC50 [4]: 3.67 µM
IC50 [5]: 4 µM
IC50 [6]: 2.6 µM
IC50 [7]: 1.9 µM

Compound: O=S(=O)(NCCO)c1ccc(Nc2nc(Nc3ccc(C(F)(F)F)cc3)c3cn[nH]c3n2)cc1 [Cpd 10, N-(2-hydroxy-ethyl)-4-[4-(4-trifluoromethyl-phenylamino)-1H-pyrazolo[3,4-d]pyrimidin-6-ylamino]-benzenesulfonamide]
inhibition at 2 µM [1]: 31%
IC50 [2]: 1.52 µM
IC50 [3]: 0.377 µM
IC50 [4]: 3.49 µM
IC50 [5]: 3.4 µM
IC50 [6]: 10 µM
IC50 [7]: 1 µM

Compound: O=S(=O)(NCCO)c1ccc(Nc2nc(Nc3ccc(S(=O)(=O)NCCO)cc3)c3cnn(C4CCCCC4)c3n2)cc1 [Cpd 17, 1-cyclohexyl-N^4,N^6-bis-{4-[(2-hydroxy-ethyl)-amino-sulfonyl]-phenyl}-1H-pyrazolo[3,4-d]pyrimidine-4,6-diamine]
inhibition at 2 µM [1]: 22%
IC50 [2]: 12 µM
IC50 [3]: 3.88 µM
IC50 [4]: 90 µM
IC50 [5]: 100 µM
IC50 [6]: 100 µM
IC50 [7]: 100 µM

Compound: NS(=O)(=O)c1ccc(Nc2nc(Nc3ccc(S(N)(=O)=O)cc3)c3cnoc3n2)cc1 [Cpd 5, N^4,N^6-bis-[4-(amino-sulfonyl)-phenyl]-isoxazolo[5,4-d]pyrimidine-4,6-diamine]
inhibition at 2 µM [1]: 39%
IC50 [2]: 2.53 µM
IC50 [3]: 0.443 µM
IC50 [4]: 2.45 µM
IC50 [5]: 70.7 µM
IC50 [6]: 38.2 µM
IC50 [7]: 27 µM

Compound: O=S(=O)(NCCO)c1ccc(Nc2nc(Nc3ccc(S(=O)(=O)NCCO)cc3)c3cn[nH]c3n2)cc1 [Cpd 3, N^4,N^6-bis-{4-[(2-hydroxy-ethyl)-amino-sulfonyl]-phenyl}-1H-pyrazolo[3,4-d]pyrimidine-4,6-diamine]
inhibition at 2 µM [1]: 78%
IC50 [2]: 0.079 µM
IC50 [3]: 0.018 µM
IC50 [4]: 0.328 µM
IC50 [5]: 10 µM
IC50 [6]: 100 µM
IC50 [7]: 32.6 µM

Compound: c1cc2[nH]ncc2cc1Nc1nc(Nc2ccc3[nH]ncc3c2)c2cn[nH]c2n1 [Cpd 9, N^4,N^6-bis-(1H-indazol-5-yl)-1H-pyrazolo[3,4-d]pyrimidine-4,6-diamine]
inhibition at 2 µM [1]: 47%
IC50 [2]: 0.145 µM
IC50 [3]: 0.04 µM
IC50 [4]: 0.43 µM
IC50 [5]: 100 µM
IC50 [6]: 100 µM
IC50 [7]: 100 µM

Compound: NS(=O)(=O)c1ccc(Nc2nc(Nc3ccccn3)c3cnoc3n2)cc1 [Cpd 7, 4-[4-(pyridin-2-ylamino)-isoxazolo[5,4-d]pyrimidin-6-ylamino]-benzenesulfonamide]
inhibition at 2 µM [1]: 21%
IC50 [2]: > 100 µM
IC50 [3]: > 10 µM
IC50 [4]: > 100 µM
IC50 [5]: 100 µM
IC50 [6]: 10 µM
IC50 [7]: 100 µM

The next lines start with the values.

inhibition at 2 µM [1]: 12%
IC50 [2]: > 100 µM
IC50 [3]: 9.18 µM
IC50 [4]: 75 µM
IC50 [5]: 100 µM
IC50 [6]: 100 µM
IC50 [7]: 100 µM
Compound: O=S(=O)(NCCO)c1ccc(Nc2nc(Nc3ccc(S(=O)(=O)NCCO)cc3)c3cnoc3n2)cc1 [Cpd 19, N^4,N^6-bis-{4-[(2-hydroxy-ethyl)-amino-sulfonyl]-phenyl}-isoxazolo[5,4-d]pyrimidine-4,6-diamine]

inhibition at 2 µM [1]: 23%
IC50 [2]: 2.79 µM
IC50 [3]: 0.493 µM
IC50 [4]: > 100 µM
IC50 [5]: 100 µM
IC50 [6]: 100 µM
IC50 [7]: 1.2 µM
Compound: CC(C)(C)n1ncc2c(Nc3ccc(S(=O)(=O)NCCO)cc3)nc(Nc3ccc(S(=O)(=O)NCCO)cc3)nc21 [Cpd 18, 1-t-butyl-N^4,N^6-bis-{4-[(2-hydroxy-ethyl)-amino-sulfonyl]-phenyl}-1H-pyrazolo[3,4-d]pyrimidine-4,6-diamine]

inhibition at 2 µM [1]: 53%
IC50 [2]: 1.87 µM
IC50 [3]: 0.533 µM
IC50 [4]: 13.2 µM
IC50 [5]: 100 µM
IC50 [6]: 100 µM
IC50 [7]: 100 µM
Compound: CC(=O)n1ncc2c(Nc3ccc(S(=O)(=O)NCCO)cc3)nc(Nc3ccc(S(=O)(=O)NCCO)cc3)nc21 [Cpd 21, 1-acetyl-N^4,N^6-bis-{4-[(2-hydroxy-ethyl)-amino-sulfonyl]-phenyl}-1H-pyrazolo[3,4-d]pyrimidine-4,6-diamine]

inhibition at 2 µM [1]: 26%
IC50 [2]: > 100 µM
IC50 [3]: 4.4 µM
IC50 [4]: 23.1 µM
IC50 [5]: 25 µM
IC50 [6]: 100 µM
IC50 [7]: 100 µM
Compound: O=S(=O)(NCCO)c1ccc(Nc2nc(Nc3ccccc3)c3cnoc3n2)cc1 [Cpd 20, N-(2-hydroxy-ethyl)-4-(4-phenylamino-isoxazolo[5,4-d]pyrimidin-6-ylamino)-benzenesulfonamide]
